For two compounds, IC50 results are on record in patent EP4644396A1 (Visionpharma (Nantong) Co., Ltd, priority 2022, dated 2024).

Experiment [1] deals with T1, human TLR7 (Homo sapiens, UniProt Q9NYK1).
T1 sequence (Q9NYK1 27-1049): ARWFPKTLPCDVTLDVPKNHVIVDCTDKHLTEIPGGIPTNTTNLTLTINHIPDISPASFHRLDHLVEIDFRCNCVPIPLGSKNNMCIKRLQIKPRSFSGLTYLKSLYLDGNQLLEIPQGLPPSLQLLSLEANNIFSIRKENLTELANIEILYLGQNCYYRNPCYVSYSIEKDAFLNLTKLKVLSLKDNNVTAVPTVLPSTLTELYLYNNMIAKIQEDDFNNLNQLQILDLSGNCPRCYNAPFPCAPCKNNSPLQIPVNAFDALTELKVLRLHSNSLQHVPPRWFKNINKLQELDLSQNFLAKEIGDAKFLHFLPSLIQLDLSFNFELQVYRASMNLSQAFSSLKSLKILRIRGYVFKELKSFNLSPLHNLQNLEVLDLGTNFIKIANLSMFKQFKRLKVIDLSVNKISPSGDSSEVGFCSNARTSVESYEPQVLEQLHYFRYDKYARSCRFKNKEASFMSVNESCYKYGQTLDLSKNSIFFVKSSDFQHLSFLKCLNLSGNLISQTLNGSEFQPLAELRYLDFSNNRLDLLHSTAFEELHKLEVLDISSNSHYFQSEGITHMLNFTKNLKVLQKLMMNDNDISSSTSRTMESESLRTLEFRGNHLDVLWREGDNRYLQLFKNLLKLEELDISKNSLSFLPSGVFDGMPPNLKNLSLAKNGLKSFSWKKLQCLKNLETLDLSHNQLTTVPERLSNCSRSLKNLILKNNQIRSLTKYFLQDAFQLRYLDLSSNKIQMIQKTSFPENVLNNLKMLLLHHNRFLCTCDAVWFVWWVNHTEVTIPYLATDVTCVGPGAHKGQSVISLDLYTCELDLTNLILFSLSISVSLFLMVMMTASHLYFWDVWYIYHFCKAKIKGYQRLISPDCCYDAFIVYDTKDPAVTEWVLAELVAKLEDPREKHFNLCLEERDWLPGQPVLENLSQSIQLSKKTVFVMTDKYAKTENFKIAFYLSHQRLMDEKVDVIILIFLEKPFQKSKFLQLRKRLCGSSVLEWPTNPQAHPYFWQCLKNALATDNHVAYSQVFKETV
Description: HEK-Blue hTLR7 SEAP reporter gene inhibition assay. The class given is cell-based. As to conditions: hTLR7 HEK-Blue cells, TLR7 ligand Gardiquimod 10 µM, 20 hours, SEAP by Quanti-blue, read-out: HEK-Blue hTLR7 IC50. In short, it runs like this: (§1)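 HEK-Blue cells stably expressing human TLR7 (80,000/well) or TLR8 (60,000/well) with NF-κB/AP-1–driven SEAP reporter; compounds 0.001–36 µM preincubated 15 min, then 10 µM ligand (Gardiquimod for TLR7) added for 20 h. SEAP measured by Quanti-Blue; IC50 calculated.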
In general terms: In a reporter assay the amount or activity of a reporter protein is the signal.

Experiment [2] addresses T2, human TLR8 (Homo sapiens, UniProt Q9NR97).
T2 construct: expressed in transfected cells
T2 sequence (Q9NR97 27-1041): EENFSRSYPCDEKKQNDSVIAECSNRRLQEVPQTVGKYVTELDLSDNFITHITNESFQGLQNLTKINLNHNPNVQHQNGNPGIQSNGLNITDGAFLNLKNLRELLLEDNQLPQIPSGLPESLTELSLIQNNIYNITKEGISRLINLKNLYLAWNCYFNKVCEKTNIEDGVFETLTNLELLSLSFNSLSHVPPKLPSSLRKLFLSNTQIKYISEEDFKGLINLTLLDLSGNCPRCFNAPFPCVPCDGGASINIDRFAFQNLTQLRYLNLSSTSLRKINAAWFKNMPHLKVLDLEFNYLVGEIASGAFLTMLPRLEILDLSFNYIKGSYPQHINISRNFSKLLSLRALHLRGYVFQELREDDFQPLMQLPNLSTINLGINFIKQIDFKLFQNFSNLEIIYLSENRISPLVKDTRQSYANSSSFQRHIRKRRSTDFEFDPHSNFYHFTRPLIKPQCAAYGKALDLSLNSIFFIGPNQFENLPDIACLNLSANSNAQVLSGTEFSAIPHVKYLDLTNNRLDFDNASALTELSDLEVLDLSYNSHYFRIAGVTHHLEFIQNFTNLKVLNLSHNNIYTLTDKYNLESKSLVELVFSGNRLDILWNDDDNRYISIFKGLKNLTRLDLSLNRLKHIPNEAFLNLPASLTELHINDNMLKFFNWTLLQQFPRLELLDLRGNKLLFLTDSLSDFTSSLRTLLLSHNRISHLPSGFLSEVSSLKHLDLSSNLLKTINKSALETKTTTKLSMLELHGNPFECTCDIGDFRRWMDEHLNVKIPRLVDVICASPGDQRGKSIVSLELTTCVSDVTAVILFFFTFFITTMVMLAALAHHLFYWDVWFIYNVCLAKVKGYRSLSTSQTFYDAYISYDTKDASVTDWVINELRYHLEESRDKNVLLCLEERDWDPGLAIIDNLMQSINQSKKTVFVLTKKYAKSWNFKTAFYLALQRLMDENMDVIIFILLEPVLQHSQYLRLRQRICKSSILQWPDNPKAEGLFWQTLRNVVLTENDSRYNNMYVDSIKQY
The experiment can be described thus: HEK-Blue hTLR8 SEAP reporter gene inhibition assay. Format: cell-based. As to conditions: hTLR8 HEK-Blue cells, TLR8 ligand 10 µM, 20 hours, SEAP by Quanti-blue, read-out: HEK-Blue hTLR8 IC50. In short, it runs like this: as §1

Read-outs that look alike come from different tables or passages of the source.

On to `N#Cc1ccc(N2C[C@H](N)C[C@H](C(F)(F)F)C2)c2cccnc12` [Example M5049, reference compound], for which the results for the IC50 in experiment [1] (numeric value) and in experiment [2] (numeric value) were 64 nM and 150 nM, respectively.

Turning to “N-(tert-butyl)-2-((4R,9S)-2-(7-cyano-3-fluoropyrazolo[1,5-a]pyridin-4-yl)-4,9-dimethyl-1,2,3,4,9,10-hexahydropyrido[3',4':3,4]pyrazolo[1,5-a]pyrazin-8(7H)-yl)acetamide [Example I-154]”, the IC50 (commonly the concentration at which inhibition is half-maximal) in experiment [1] (class symbols) is above 50 nM; in experiment [2] (class symbols), above 100 nM.
